Laboratory results: ChEMBL document CHEMBL4715711, “Development of cyanopyridine-triazine hybrids as lead multitarget anti-Alzheimer agents” (Bioorg Med Chem, 2016)
Active and inactive are the calls of the source. No cut-off for these calls is given here.

Legend:
[1] = system: SH-SY5Y; assay: Neuroprotective activity against amyloid beta (1 to 42)-induced neurotoxicity in human SH-SY5Y cells at 5 to 20 uM incubated for 48 hrs in presence of amyloid beta (1 to 42) by MTT assay; assay type: functional, cell-based; conditions: dose 5-20 µM
[2] = system: SH-SY5Y; assay: Cytotoxicity against human SH-SY5Y cells assessed as reduction in cell viability at 10 uM incubated for 48 hrs by MTT assay; assay type: cell-based
[3] = system: SH-SY5Y; assay: Cytotoxicity against human SH-SY5Y cells assessed as reduction in cell viability at 50 uM incubated for 48 hrs by MTT assay; assay type: cell-based
[4] = system: SH-SY5Y; assay: Inhibition of H2O2-induced cell death in human SH-SY5Y cells at 20 uM incubated for 24 hrs by microscopic analysis; assay type: functional, cell-based
[5] = system: SH-SY5Y; assay: Cytotoxicity against human SH-SY5Y cells assessed as reduction in cell viability at 25 uM incubated for 48 hrs by MTT assay; assay type: cell-based
[6] = target: Acetylcholinesterase (Electrophorus electricus, UniProt O42275); assay: Inhibition of electric eel AchE using acetylthiocholine iodide as substrate incubated for 5 mins followed by substrate addition and measured after 2 mins by Ellman's method
[7] = system: SH-SY5Y; assay: Neuroprotective activity against amyloid beta (1 to 42)-induced fade synapses in human SH-SY5Y cells at 20 uM incubated for 24 hrs in presence of amyloid beta (1 to 42) by phase-contrast microscopic analysis; assay type: functional, cell-based
[8] = system: SH-SY5Y; assay: Neuroprotective activity against amyloid beta (1 to 42)-induced shrink on cell body in human SH-SY5Y cells at 20 uM incubated for 24 hrs in presence of amyloid beta (1 to 42) by phase-contrast microscopic analysis; assay type: functional, cell-based
[9] = species: Homo sapiens; assay: Inhibition of amyloid beta (1 to 42 ) (unknown origin) self aggregation at 25 uM after 48 hrs by TEM analysis
[10] = system: SH-SY5Y; assay: Cytotoxicity against human SH-SY5Y cells assessed as reduction in cell viability at 100 uM incubated for 48 hrs by MTT assay; assay type: cell-based
[11] = target: Cholinesterase (Equus caballus, UniProt P81908); assay: Inhibition of equine serum BuChE using butyrylthiocholine iodide as substrate incubated for 5 mins followed by substrate addition and measured after 2 mins by Ellman's method; assay type: cell-free
[12] = system: SH-SY5Y; assay: Neuroprotective activity against amyloid beta (1 to 42)-induced loss of adherence in human SH-SY5Y cells at 20 uM incubated for 24 hrs in presence of amyloid beta (1 to 42) by phase-contrast microscopic analysis; assay type: functional, cell-based
[13] = system: SH-SY5Y; assay: Neuroprotective activity against amyloid beta (1 to 42)-induced cell fragmentation in human SH-SY5Y cells at 20 uM incubated for 24 hrs in presence of amyloid beta (1 to 42) by phase-contrast microscopic analysis; assay type: functional, cell-based
[14] = system: SH-SY5Y; assay: Cytotoxicity against human SH-SY5Y cells assessed as reduction in cell viability at 1 uM incubated for 48 hrs by MTT assay; assay type: cell-based
[15] = system: SH-SY5Y; assay: Inhibition of H2O2-induced ROS accumulation in human SH-SY5Y cells at 10 to 20 uM incubated for 24 hrs by […] probe based fluorescence assay; assay type: functional, cell-based; conditions: dose 10-20 µM
[16] = species: Homo sapiens; assay: Inhibition of amyloid beta (1 to 42 ) (unknown origin) self aggregation at 25 uM after 48 hrs by thioflavin-T fluorescence method relative to control
[17] = system: SH-SY5Y; assay: Neuroprotective activity against amyloid beta (1 to 42)-induced cell floating in human SH-SY5Y cells at 20 uM incubated for 24 hrs in presence of amyloid beta (1 to 42) by phase-contrast microscopic analysis; assay type: functional, cell-based
[18] = system: SH-SY5Y; assay: Inhibition of H2O2-induced morphological changes in human SH-SY5Y cells at 20 uM incubated for 24 hrs by microscopic analysis; assay type: functional, cell-based
[19] = system: SH-SY5Y; assay: Cytotoxicity against human SH-SY5Y cells assessed as reduction in cell viability at 75 uM incubated for 48 hrs by MTT assay; assay type: cell-based
[20] = system: SH-SY5Y; assay: Cytotoxicity against human SH-SY5Y cells assessed as reduction in cell viability at 5 uM incubated for 48 hrs by MTT assay; assay type: cell-based
[21] = target: Acetylcholinesterase (Electrophorus electricus) (UniProt O42275); assay: Mixed inhibition of electric eel AchE using acetylthiocholine iodide as substrate incubated for 5 mins followed by substrate addition and measured after 2 mins by Ellman's method based Lineweaver-Burk plot analysis; conditions: time 7.0 min
Sequence of Acetylcholinesterase (Electrophorus electricus) (O42275 24-633 limits assumed): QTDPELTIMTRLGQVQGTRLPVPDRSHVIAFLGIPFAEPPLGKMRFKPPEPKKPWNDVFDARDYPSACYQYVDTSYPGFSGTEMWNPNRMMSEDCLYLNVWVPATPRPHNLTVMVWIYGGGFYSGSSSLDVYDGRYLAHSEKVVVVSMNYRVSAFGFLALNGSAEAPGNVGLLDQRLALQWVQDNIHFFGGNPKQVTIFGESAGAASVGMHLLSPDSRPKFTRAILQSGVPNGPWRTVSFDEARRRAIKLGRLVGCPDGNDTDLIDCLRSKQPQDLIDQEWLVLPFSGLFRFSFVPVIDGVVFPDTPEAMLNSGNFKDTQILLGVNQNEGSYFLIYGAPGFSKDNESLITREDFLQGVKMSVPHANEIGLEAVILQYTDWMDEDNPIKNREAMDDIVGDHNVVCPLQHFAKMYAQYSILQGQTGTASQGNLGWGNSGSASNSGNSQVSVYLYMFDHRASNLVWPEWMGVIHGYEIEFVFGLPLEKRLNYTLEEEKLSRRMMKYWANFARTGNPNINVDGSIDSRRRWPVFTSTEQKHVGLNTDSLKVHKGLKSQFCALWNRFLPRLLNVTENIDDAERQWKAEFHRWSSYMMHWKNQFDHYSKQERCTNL

Sequence of Acetylcholinesterase (O42275 whole entry): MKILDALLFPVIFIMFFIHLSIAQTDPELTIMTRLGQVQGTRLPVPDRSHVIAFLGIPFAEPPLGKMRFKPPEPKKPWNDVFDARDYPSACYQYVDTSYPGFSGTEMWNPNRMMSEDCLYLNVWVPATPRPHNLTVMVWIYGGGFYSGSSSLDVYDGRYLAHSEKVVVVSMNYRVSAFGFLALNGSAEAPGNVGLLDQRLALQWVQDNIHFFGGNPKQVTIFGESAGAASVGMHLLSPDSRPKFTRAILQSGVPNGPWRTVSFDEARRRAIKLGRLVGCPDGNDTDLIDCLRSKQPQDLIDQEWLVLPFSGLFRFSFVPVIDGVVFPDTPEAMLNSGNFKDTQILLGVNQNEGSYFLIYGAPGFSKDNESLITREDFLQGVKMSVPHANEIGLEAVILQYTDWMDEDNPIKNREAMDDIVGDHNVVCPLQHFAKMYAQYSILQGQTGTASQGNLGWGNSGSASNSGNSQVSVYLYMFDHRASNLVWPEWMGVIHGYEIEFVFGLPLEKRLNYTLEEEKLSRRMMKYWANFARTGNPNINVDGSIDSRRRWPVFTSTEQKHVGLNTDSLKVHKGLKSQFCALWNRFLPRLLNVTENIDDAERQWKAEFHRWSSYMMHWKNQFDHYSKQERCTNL
Sequence of Cholinesterase (P81908 whole entry): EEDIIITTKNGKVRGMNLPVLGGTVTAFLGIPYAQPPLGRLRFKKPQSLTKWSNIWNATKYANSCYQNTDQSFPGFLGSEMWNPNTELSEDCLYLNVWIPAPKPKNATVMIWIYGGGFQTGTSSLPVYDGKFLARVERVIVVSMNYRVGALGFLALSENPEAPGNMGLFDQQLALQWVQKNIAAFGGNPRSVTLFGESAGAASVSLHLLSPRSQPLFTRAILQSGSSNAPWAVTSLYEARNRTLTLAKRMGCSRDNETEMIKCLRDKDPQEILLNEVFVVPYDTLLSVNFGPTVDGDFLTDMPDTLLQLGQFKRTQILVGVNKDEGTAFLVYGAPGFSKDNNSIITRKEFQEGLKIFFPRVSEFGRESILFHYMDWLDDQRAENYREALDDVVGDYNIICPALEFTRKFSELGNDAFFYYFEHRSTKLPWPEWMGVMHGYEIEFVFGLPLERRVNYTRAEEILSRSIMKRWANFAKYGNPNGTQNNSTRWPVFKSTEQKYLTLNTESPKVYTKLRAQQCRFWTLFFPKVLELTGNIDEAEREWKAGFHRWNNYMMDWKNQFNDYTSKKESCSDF

COc1ccc(Nc2nc(Nc3cccc(C(F)(F)F)c3)nc(N3CCN(c4ncccc4C#N)CC3)n2)cc1
Activity [1]: Dose-dependent effect | Activity [2]: 94.7% | Activity [3]: 89.6% | inhibition [4]: Active | Activity [5]: 93.8% | IC50 [6]: 80 nM | Activity [7]: Active | Activity [8]: Active | inhibition [9]: Active | Activity [10]: 83.3% | IC50 [11]: 2.02 µM | Activity [12]: Active | Activity [13]: Active | Activity [14]: 98.1% | inhibition [15]: Active | inhibition [16]: 82.4% | Activity [17]: Active | inhibition [18]: Active | Activity [19]: 86.3% | Activity [20]: 96.4%

N#Cc1cccnc1N1CCN(c2nc(Nc3cccc(C(F)(F)F)c3)nc(Nc3ccc(F)c(Cl)c3)n2)CC1
Activity [1]: Active | Activity [2]: 95.7% | Activity [3]: 88.6% | inhibition [4]: Active | Activity [5]: 92.8% | IC50 [6]: 59 nM | Activity [7]: Active | Activity [8]: Active | inhibition [21]: Active | inhibition [9]: Active | Activity [10]: 80.3% | IC50 [11]: 3.6 µM | Activity [12]: Active | Activity [13]: Active | Activity [14]: 97.1% | inhibition [15]: Active | inhibition [16]: 83.7% | Activity [17]: Active | inhibition [18]: Active | Activity [19]: 84.3% | Activity [20]: 95.4%

Cc1ccc(Nc2nc(Nc3cccc(C(F)(F)F)c3)nc(N3CCN(c4ncccc4C#N)CC3)n2)cc1
IC50 [6]: 153 nM | IC50 [11]: 2.21 µM | inhibition [16]: 70.5%

Cc1ccc(Nc2nc(Nc3ccc(F)c(Cl)c3)nc(N3CCN(c4ncccc4C#N)CC3)n2)cc1
IC50 [6]: 1700 nM | IC50 [11]: 5.36 µM | inhibition [16]: 63.5%

N#Cc1cccnc1N1CCN(c2nc(Nc3ccc(F)cc3)nc(Nc3cccc(C(F)(F)F)c3)n2)CC1
IC50 [6]: 84 nM | IC50 [11]: 4.89 µM | inhibition [16]: 80.4%

COc1cc(/C=C/C(=O)CC(=O)/C=C/c2ccc(O)c(OC)c2)ccc1O
inhibition [9]: Active | inhibition [16]: 55.3%

N#Cc1cccnc1N1CCN(c2nc(Nc3cccc(C(F)(F)F)c3)nc(Nc3ccc(F)cc3F)n2)CC1
IC50 [6]: 72 nM | IC50 [11]: 2.85 µM | inhibition [16]: 81.2%

N#Cc1cccnc1N1CCN(c2nc(Nc3cccc(C(F)(F)F)c3)nc(NC3CC3)n2)CC1
IC50 [6]: 528 nM | IC50 [11]: 5.25 µM | inhibition [16]: 60.7%

COc1ccc(Nc2nc(Nc3ccccc3F)nc(N3CCN(c4ncccc4C#N)CC3)n2)cc1
IC50 [6]: 1410 nM | IC50 [11]: 4.13 µM | inhibition [16]: 68.5%
